# Results: patent US20200405728A1, “METHODS OF PREVENTING AND TREATING HYPOGLYCEMIA IN TYPE 1 AND TYPE 2 DIABETES PATIENTS” (Ferox Therapeutics LLC, priority 2018, published 2020)
# Structures can show the parent of a compound that is named as a salt.
# System: 3D INSIGHT Islet Microtissues (primary human pancreatic islet cells)
# Experiment: Glucagon secretion assay (glucagon ELISA) in 3D INSIGHT Islet Microtissues
# Type: cell-based
# Conditions: for dose dependency of the increase in glucagon secretion: Example 2, donor AFCS437, 1, 10 and 100 μM; for fold induction at 10 µM / fold induction at 100 µM: Homo sapiens, Pancreatic islet; for fold induction at 10 µM: donor AFBM114, 10 μM; for fold induction at 100 µM: donor AFBM114, 100 μM
# From the text: This and the following example make use of 3D INSIGHT® Islet Microtissues (InSphero AG, Schlieren, Switzerland), an in vitro model system for diabetes research produced by optimized dissociation and controlled scaffold-free reaggregation of primary human pancreatic islet cells. This allows precise control over the newly forming islet microtissue size and eliminates contaminating exocrine material while ensuring homogeneous and native-like distribution of endocrine cells within each tissue. The resulting islet tissues display long-term (>28 days) and robust function, enabling high throughput and longitudinal study of pancreatic islet function, regulation, and preservation.
# 1. The diabetes model system 3D INSIGHT® Islet Microtissues was obtained from a donor. 2. […] 3. Six replicates for each sample were tested. 4. L-arginine was used as a positive control. 5. DMSO was used a solvent for BF2649 hydrochloride and cyproheptadine hydrochloride; ddH2O was used as a solvent for L-arginine. […] 6. Glucagon secretion was quantified with a glucagon ELISA (Mercodia, Uppsala, Sweden). 7. Total ATP content was also measured during the assay.
# Referring to FIG. 5, a timeline (500) of the assay is shown. Day 0 (510) involved producing the 3D INSIGHT® Human Islet Microtissues. On Day 5 (520), the samples were moved to a receiving plate. On Day 7 (530), the islet size, viability, and function were verified by quality control. On the final day of the test (540), the glucagon secretion assay was performed with ELISA, and ATP content was measured.
# Before the assay, conditioned media was removed, islet microtissue washed twice with Kreb's Ringer HEPES buffer (KRHB) containing 5.5 mM glucose and were equilibrated in KRHB containing 5-5 mM glucose for 1.5 hours. Equilibration buffer was removed, islet microtissues were washed twice in KRHB with 5-5 mM glucose. Glucagon secretion was performed in KRHB with either 8 mM or 1 mM glucose for 2 hours in the presence of the test compounds. Conditioned KRHB were collected for analysis of glucagon content with an ELISA (Mercodia, Uppsala, Sweden).
# A second donor (UNOS ID #AFCS437) was used as well.
# Before the assay, conditioned media was removed, islet microtissue washed twice with Kreb's Ringer HEPES buffer (KRHB) containing 5-5 mM glucose and were equilibrated in KRHB containing 5-5 mM glucose for 1.5 hours. Equilibration buffer was removed, islet microtissues were washed twice in KRHB with 5-5 mM glucose. Glucagon secretion was performed in KRHB with either 8 mM or 1 mM glucose for 2 hours in the presence of the test compounds. Conditioned KRHB were collected for analysis of glucagon content with an ELISA (Mercodia, Uppsala, Sweden).
# [1] = Example 1, donor AFBM114, 2 hours
# [2] = Example 1, donor AFBM114, 2 hours, compared to vehicle at 1 mM glucose (FIG. 6)
smiles,measurement,setting,value
"Clc1ccc(CCCOCCCN2CCCCC2)cc1 [BF2649 hydrochloride, 1-{3-[3-(4-chlorophenyl)propoxy]propyl}piperidine]",dose dependence of the increase in glucagon secretion,"Example 1, donor AFBM114, 1, 10 and 100 μM, 1 mM glucose",dose dependent
same,"increase in glucagon secretion, 1 mM glucose versus 8 mM glucose",[1],higher at 1 mM glucose than at 8 mM glucose
same,glucagon secretion (effect),[2],increased glucagon secretion
same,glucagon secretion (effect),"Example 2, donor AFBM114, 10 μM, 8 mM glucose (FIG. 8)",increased glucagon secretion
same,glucagon secretion (effect),"Example 2, donor AFBM114, 100 μM, 8 mM glucose (FIG. 8)",increased glucagon secretion
same,increase in glucagon secretion compared with 5 mM arginine,"Example 2, donor AFCS437, 100 μM",similarly to 5 mM arginine
same,dose dependency of the increase in glucagon secretion,,significant dose dependency
same,fold induction at 10 µM,1 mM glucose (Example 1),1.8
same,fold induction at 10 µM,8 mM glucose (Example 2),1.8
same,fold induction at 100 µM,1 mM glucose (Example 1),7.5
same,fold induction at 100 µM,8 mM glucose (Example 2),2
same,increase in glucagon secretion compared with 5 mM arginine,"previously tested donor (AFBM114), 100 μM",similarly to 5 mM arginine
"O=C(O)COCCN1CCN(C(c2ccccc2)c2ccc(Cl)cc2)CC1 (stereo not drawn) [Cetirizine, cetirizine dihydrochloride]",dose dependency of the increase in glucagon secretion,,much less pronounced
same,glucagon secretion (effect),"Example 2, donor AFCS437, all tested concentrations, compared to vehicle at 1 mM glucose (FIG. 10)",only slightly increased glucagon secretion
N=C(N)NCCC[C@H](N)C(=O)O [L-arginine],"increase in glucagon secretion, 1 mM glucose versus 8 mM glucose",[1],higher at 1 mM glucose than at 8 mM glucose
same,glucagon secretion (effect),[2],increased glucagon secretion
CN1CCC(=C2c3ccccc3C=Cc3ccccc32)CC1 [cyproheptadine hydrochloride],"increase in glucagon secretion, 1 mM glucose versus 8 mM glucose",[1],higher at 1 mM glucose than at 8 mM glucose
same,glucagon secretion (effect),[2],increased glucagon secretion
